According to ChEMBL document CHEMBL1158949, “Plant metabolites. New compounds and anti-inflammatory activity of Uncaria tomentosa” (1991):
Activity calls are given as the source filed them. The rule behind the calls is not given here.

Tests used:
Rattus norvegicus [1] = assay: Inhibition of carrageenan-induced edema in Wistar rat paw at 0.04 mg/kg to 0.51 mg/kg, po; format: functional, organism-based
Rattus norvegicus [2] = assay: Inhibition of carrageenan-induced edema in po dosed Wistar rat paw; format: functional
Rattus norvegicus [3] = assay: Inhibition of carrageenan-induced edema in Wistar rat paw at 5 mg/kg, po; format: functional, organism-based; parameters: dose 5 mg/kg
Rattus norvegicus [4] = assay: Inhibition of carrageenan-induced edema in Wistar rat paw at 20 mg/kg, po after 3 hrs; format: functional

Row | Structure (SMILES) | Activity (Rattus norvegicus [1]) | further results
1 | COC(=O)[C@]12CC[C@@H](C)[C@@](C)(O)[C@H]1C1=CC[C@@H]3[C@@]4(C)CC[C@H](O)[C@@](C)(C(=O)OC)[C@@H]4[C@H](O)C[C@@]3(C)[C@]1(C)CC2 | inactive | 
2 | COc1ccc2c(c1)c(CC(=O)O)c(C)n2C(=O)c1ccc(Cl)cc1 [INDOMETHACIN] |  | ED50 (Rattus norvegicus [2]): 0.014 mmol; Activity (Rattus norvegicus [3]): Active
3 | CC1(C)CC[C@]2(C(=O)O)CC[C@]3(C)C(=CC[C@@H]4[C@@]5(C)CC[C@H](O)C(C)(C)[C@@H]5CC[C@]43C)[C@@H]2C1 | inactive | Activity (Rattus norvegicus [4]): inactive
4 | C=C[C@H]1[C@H](O[C@@H]2O[C@H](CO)[C@@H](O)[C@H](O)[C@H]2O)OC=C(C(=O)OC)[C@H]1C[C@@H]1N[C@@H](C(=O)O)Cc2c1[nH]c1ccccc21 | inactive | 
5 | C[C@H]1[C@H](C)CC[C@]2(C(=O)O[C@@H]3O[C@H](CO)[C@@H](O)[C@H](O)[C@H]3O)CC[C@]3(C(=O)O)C(=CC[C@@H]4[C@@]5(C)CC[C@H](O[C@@H]6O[C@H](C)[C@H](O)[C@H](O[C@@H]7O[C@H](CO)[C@@H](O)[C@H](O)[C@H]7O)[C@H]6O)C(C)(C)[C@@H]5CC[C@]43C)[C@H]12 | inactive | 
6 | C[C@@H]1CC[C@]2(C(=O)O)CC[C@]3(C)C(=CC[C@@H]4[C@@]5(C)CC[C@H](O)C(C)(C)[C@@H]5[C@H](O)C[C@]43C)[C@@H]2[C@]1(C)O | inactive | Activity (Rattus norvegicus [4]): inactive
7 | C[C@H]1[C@H](C)CC[C@]2(C(=O)O)CC[C@]3(C(=O)O[C@@H]4O[C@H](CO)[C@@H](O)[C@H](O)[C@H]4O)C(=CC[C@@H]4[C@@]5(C)CC[C@H](O[C@@H]6O[C@H](C)[C@H](O)[C@H](O[C@@H]7O[C@H](CO)[C@@H](O)[C@H](O)[C@H]7O)[C@H]6O)C(C)(C)[C@@H]5CC[C@]43C)[C@H]12 | inactive | 
8 | C[C@H]1[C@H](C)CC[C@]2(C(=O)O)CC[C@]3(C)C(=CC[C@@H]4[C@@]5(C)CC[C@H](O)C(C)(C)[C@@H]5CC[C@]43C)[C@H]12 | inactive | 
9 | C[C@H]1[C@H](C)CC[C@]2(C(=O)O)CC[C@]3(C(=O)O[C@@H]4O[C@H](CO)[C@@H](O)[C@H](O)[C@H]4O)C(=CC[C@@H]4[C@@]5(C)CC[C@H](O[C@@H]6O[C@H](C)[C@@H](O)[C@H](O)[C@H]6O)C(C)(C)[C@@H]5CC[C@]43C)[C@H]12 | inactive | Activity (Rattus norvegicus [4]): 33%
10 | C[C@H]1[C@H](C)CC[C@]2(C(=O)O)CC[C@]3(C(=O)O)C(=CC[C@@H]4[C@@]5(C)CC[C@H](O[C@@H]6O[C@H](C)[C@H](O)[C@H](O[C@@H]7O[C@H](CO)[C@@H](O)[C@H](O)[C@H]7O)[C@H]6O)C(C)(C)[C@@H]5CC[C@]43C)[C@H]12 | inactive | 
11 | C[C@H]1[C@H](C)CC[C@]2(C(=O)O[C@@H]3O[C@H](CO)[C@@H](O)[C@H](O)[C@H]3O)CC[C@]3(C(=O)O)C(=CC[C@@H]4[C@@]5(C)CC[C@H](O[C@@H]6O[C@H](C)[C@@H](O)[C@H](O)[C@H]6O)C(C)(C)[C@@H]5CC[C@]43C)[C@H]12 | inactive | 
12 | C[C@H]1[C@H](C)CC[C@]2(C(=O)O)CC[C@]3(C(=O)O[C@@H]4O[C@H](CO)[C@@H](O)[C@H](O)[C@H]4O)C(=CC[C@@H]4[C@@]5(C)CC[C@H](O[C@@H]6O[C@H](C)[C@H](O)[C@H](O)[C@H]6O)C(C)(C)[C@@H]5CC[C@]43C)[C@H]12 | inactive | 
13 | C[C@H]1[C@H](C)CC[C@]2(C(=O)O[C@@H]3O[C@H](CO)[C@@H](O)[C@H](O)[C@H]3O)CC[C@]3(C(=O)O)C(=CC[C@@H]4[C@@]5(C)CC[C@H](O[C@@H]6O[C@H](C)[C@H](O)[C@H](O)[C@H]6O)C(C)(C)[C@@H]5CC[C@]43C)[C@H]12 | inactive | 
